According to patent US9266922B2, “Antigen peptide and uses thereof” (priority 2011, dated 2016):
pEC50: −log10 of the molar value. Where two headings read alike, the source gives them in different places. Residues, ends and D or L forms follow the SMILES beside them.

Tests used:
[1] = biological target: T1, HLA-A*0201 (Homo sapiens, UniProt P04439, D140Y/D185E/D98H/E176V/E277Q/G131W/G231S/I119V/I121R/I166T/I218V/L300P/L318F/N151K/N90K/P208A/P217A/Q86G/Q94H/R138H/R169H/T345S); test: iTOPIA EDS MHC peptide binding assay; conditions: HLA-A*0201 monomer, relative to positive control peptide, 21° C. for 18 h
Excerpt: MHC peptide binding assay using iTOPIA EDS
Microtiter 96 well plates containing HLA class I MHC monomer loaded with the human β2-microglobulin and a “placeholder” peptide were used to evaluate peptide binding, affinity, and off-rate.
The 502 nectin4 nonapeptides were first evaluated for their ability to bind to each MHC molecule in the peptide binding assay. In this assay, the placeholder peptides were stripped from the MHC class I monomer complexes coated on plastic, which leaves the MHC class I heavy chain available as a binding partner for candidate peptides in the presence of human β2-microglobulin.
Peptide binding was performed at 21° C. for 18 h. Revelation was done using an anti HLA-ABC-FITC mAb that binds to refolded MHC complex conformation. The relative fluorescent intensity was read using a fluorimeter (Molecular Devices, SpectraMax Gemini, Sunnyvale, Calif., USA).
Peptides with a binding>30% of the positive control peptide were selected as “binder” and subsequently analyzed for affinity (ED50) and off-rate (T1/2).

[2] = biological target: T1, HLA-A*0201; test: biochemical; assay type: binding
[3] = biological target: T1, HLA-A*0201; test: iScore calculation (iTOPIA system software); conditions: multiparametric score of binding, off-rate and affinity
[4] = biological target: T2, HLA A*0201 on CEM.T2 cell line (Homo sapiens, UniProt P04439, D140Y/D185E/D98H/E176V/E277Q/G131W/G231S/I119V/I121R/I166T/I218V/L300P/L318F/N151K/N90K/P208A/P217A/Q86G/Q94H/R138H/R169H/T345S); test: Cellular binding assay, HLA stabilization on CEM.T2 cells; assay type: cell-based; conditions: 100 μM peptide, 37° C. for 4 h, FACS anti HLA-A2; relative to HBV positive control peptide
T2 construct: This cell line expresses HLA A*0201 but is deficient for TAP transporter; endogenous in cells; host or cells: CEM.T2 (T2) cell line
Experimental: The CEM.T2 cell line (T2) is defective in the processing of proteins for presentation by MHC class 1 molecules. This cell line expresses HLA A*0201 but is deficient for TAP transporter. T2 is classically used to assess the Peptide/HLA-A*0201 Complex Stability[H. W. Nijman et al., 1993]
For HLA-A2*0201 stabilization, T2 cells (2×10^5/well) were incubated in serum-free RPMI (Gibco®-France) with 100 μM of selected peptide, at 37° C. for 4 h. Cells were washed two times with PBS supplemented with 1% BSA and stained with fluorescein isothiocyanate-conjugated anti HLA-A2 (Clone BB7.2) (BD Bioscience Pharmingen-France-) at 4° C. for 45 min. After 3 washes, cells were fixed in PBS supplemented with 2% paraformaldehyde and analyzed by FACS (FACScan, BD Bioscience). The percentage of peptide binding was calculated as follows: % Binding={(MFI peptide sample−MFI Neg control)/(MFI Pos control−MFI Neg control)}×100
Negative control was done without peptide.

[5] = biological target: T2, HLA A*0201 on CEM.T2 cell line; test: Cellular dissociation assay on CEM.T2 cells; assay type: cell-based; conditions: after Brefeldin A 1 h and 3 h in serum-free RPMI at 37° C. (4 h)
Experimental: Cellular Dissociation Assay
After HLA-A2*0201 stabilization with peptides at 37° C. for 4 h, T2 cells were incubated for 1 h, in serum-free RPMI containing Brefeldin A (10 μg/ml), an inhibitor of the transport of secretory and lysosomal proteins [G. J. Strous et al., 1993]. After 3 washes, T2 cells were incubated for 3 h in serum-free RPMI at 37° C. Binding was then measured by FACS and after 4 h incubation. Percentage of Residual Binding (% RB) was calculated as follows: […]

[6] = biological target: T1, HLA-A*0201; test: F-Score ranking (iTOPIA and CEM T2); conditions: overall ranking by iTOPIA and CEM T2 assays, nectin4 and reference peptides together

CC(C)C[C@H](NC(=O)[C@@H](N)CC(C)C)C(=O)N[C@@H](C)C(=O)N[C@@H](CO)C(=O)N[C@@H](Cc1ccccc1)C(=O)N[C@H](C(=O)NCC(=O)N[C@@H](CCCNC(=N)N)C(=O)N[C@@H](CS)C(=O)O)[C@@H](C)O [Peptide 21] (H-LLASFTGRC-OH; N-terminus and C-terminus assumed)
% Binding [1]: 91%
pEC50 ([2]; FIG. 2A, peptide concentration 10^−4 to 10^−9 M, read-out: estimated dose to reach 50% maximal binding (ED50)): ~7.00
pEC50 ([2]; peptide concentration giving 50% of optimal binding, 10^−4 to 10^−9 M, 21° C. for 18 h, read-out: Affinity (ED50)): 6.22
iScore [3]: 0.727
CEM.T2 % Binding [4]: 44%
CEM.T2 % Residual Binding [5]: 86%
RANK F-Score [6]: 11
